Structures are written as SMILES.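 48-hour exposure; five concentrations; linearly interpolated endpoints. Abbreviation: GI50, concentration required for 50% inhibition of growth. TGI denotes the concentration required for complete inhibition of growth.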

This passage reports TGI and GI50 results from PubChem BioAssay (NCI).

Assay in all cases: inhibition of tumour cell growth, NCI panel, 48 h
Assay [1] relates to DLD-1 colon.
The test system of assay [2] is DMS 114 small cell lung.
Assay [3] has as its system DMS 273 small cell lung.
Assay [4] deals with HOP-18 NSCLC.
The subject of assay [5] is LXFL 529 NSCLC.
The subject of assay [6] is RXF-631 renal.
Assay [7] has as its system SNB-78 CNS.
Assay [8] deals with XF 498 CNS.
In assay [9] the test system is MDA-N.

As to `Cc1ccc(SCC(O)=C2C(=O)CCCC2=O)cc1`, the TGI in [1], in assay [2], in assay [3], in assay [4], in [5] and in assay [6] was more than 100 µM in each case. The TGI in assay [7] and in assay [8] was more than 100 µM each time.

Take `C[C@H]1CCC/C=C/[C@@H]2C[C@H](O)C[C@H]2[C@H](O)[C@@H](SC2OC(CO)C(O)C(O)C2O)CC(=O)O1` (some centres not stated): in [9], the GI50 was 52.9 µM and the TGI is more than 100 µM.

Regarding `Cc1cc(Cl)ccc1NC(=O)CCCC(=O)C(C(=O)c1ccccc1)c1ccccc1` (configuration not stated), the TGI in assay [1], in assay [2], in [3], in [5], in assay [6] and in [7] was more than 100 µM in each case.

In [9], `O=C(Nc1ccccc1C(=O)Nc1nccs1)c1ccccc1` had a TGI of more than 100 µM.

In the case of `O=C(O)Cc1cc(=O)[nH]c2c1C(=O)CCC2`, the TGI in assay [1], in [3], in assay [4], in assay [5] and in assay [8] was more than 100 µM throughout.

`CCC1CCC2c3c([nH]c4ccccc34)C3C(=O)N(c4ccc(OC)cc4)C(=O)C3C2C1` (configuration not stated) displayed a TGI in assay [9] of more than 100 µM.

For the compound `CN(CCN(C)C(=O)CCn1ccc(=O)[nH]c1=O)C(=O)CCn1ccc(=O)[nH]c1=O`, the TGI in assay [2], in assay [3], in [5], in [7] and in [8] was more than 100 µM in each case.

As for `COc1cc(C(=O)C/C(CCC(=O)Nc2ccc(Cl)cc2Cl)=N/Nc2nnc(C)n2N)ccc1O`, the TGI in [1], in [3], in assay [4], in assay [5], in assay [7] and in assay [8] was more than 100 µM each time.

Compound `C[C@]12CC[C@H]3[C@@H](CCC4=C[C@@H](OC5OCC(OC6OC(CO)C(O)C(O)C6O)C(O)C5O)CC[C@@]43C=O)[C@@]1(O)CCC2C1=CC(=O)OC1` (some centres not stated) showed a TGI in assay [9] of 3.03 µM.

Consider `O=c1cccccc1NCCNc1cccccc1=O`, for which the TGI in [2], in assay [3], in assay [5], in assay [6], in [7] and in assay [8] was more than 100 µM throughout.

With `Cc1ccc(C)c2c1CCc1cc3ccccc3nc1-2`, the TGI in [1], in [2], in assay [4], in assay [5], in assay [7] and in assay [8] was more than 100 µM each time.

For `CC(C)N(Cc1ccccc1)S(=O)(=O)c1n[nH]c(C(C)(C)C)n1`, the TGI in assay [9] was more than 100 µM.

`O=C1NC(O)CCN1C1CC(O)C(CO)O1` (configuration not stated) showed a TGI in assay [9] of more than 100 µM.

Take `CCCCN(CCCC)C(=O)C(=O)CC(=O)/C=C/c1ccccc1`: the TGI in [1], in assay [2], in assay [3], in assay [4], in assay [5] and in assay [6] was more than 100 µM throughout. Besides, in assay [7], the TGI is more than 100 µM.

Consider `N[C@H](C(=O)O)[C@@H](Cl)CC(=O)O`, for which the TGI in [1], in assay [2], in [3], in assay [4], in assay [5] and in assay [7] was more than 100 µM in each case. In addition, the TGI in assay [8] was more than 100 µM.

As for `COc1cc(C2(C)SCCCS2)c(I)c(OC)c1OC`, the TGI in assay [1], in assay [2], in [3], in [4], in assay [5] and in assay [6] was more than 100 µM each time. The TGI in [7] and in assay [8] was more than 100 µM in each case.

On to `CCCCCCCCCCCCCCC(O)C1CCC(C(O)CCC(O)CCCCCC(O)CC2=CC(C)OC2=O)O1` (configuration not stated), for which the TGI in assay [1] was determined as 11.9 µM; in assay [2], 4.57 µM; in assay [3] it was 4.75 µM; in [5], 13 µM; in assay [6], 16.4 µM; in assay [7] it was 8.31 µM. In assay [8], this compound yielded a TGI of 4.88 µM.

Regarding `COC(=O)/C(=N/O)C(C(=O)OC)C(=O)C(=O)Nc1c(Cl)cc(C)cc1S(=O)(=O)O` (configuration not stated), the TGI in assay [1] is more than 100 µM; in assay [2], more than 100 µM; in assay [3] it was 33.2 µM; in assay [4] it was more than 100 µM; in assay [5], more than 100 µM; in assay [6], more than 100 µM. Also, the TGI in [7] and in [8] was more than 100 µM in each case.

Take `COc1cc2c3c(c1OC)Oc1ccc(cc1)CC1c4c(cc(OC)c(OC)c4Oc4ccc(cc4)CC3N(C)CC2)CCN1C` (configuration not stated): the TGI in assay [1] was more than 100 µM; in assay [2] it was 35.9 µM; in assay [3], 37.2 µM; in assay [4], 84.2 µM; in [5], 39.6 µM.

Turning to `O=C(Nc1ccccc1C(=O)O)C(=O)C(C(=O)c1ccccc1-c1ccccc1)C1OC(=O)c2ccccc21` (configuration not stated), the TGI in assay [1] is 47 µM; in assay [3], 95.3 µM; in assay [4], 28.2 µM; in [5], 28 µM; in assay [7], more than 100 µM; in assay [8] it was 22 µM.

Turning to `COC(=O)C12C3C4C1C1C2C3C41C(=O)N(C(C)C)C(C)C` (configuration not stated), the TGI in [1], in [2], in [3], in assay [5] and in assay [7] was more than 100 µM in each case.
